Patent US20040198663A1, “Method of treating cardiac ischemia by using erythropoietin” (priority 2003, published 2004)

Experiments:
[1] = system: adult male Sprague Dawley rat hearts; experiment: Coronary artery ligation model, isolated perfused heart, 30 min regional ischemia and 3 hours reperfusion; settings: erythropoietin 1.0 U/ml 15 minutes prior to regional ischemia, vs control
Excerpt: Animals used in this study were adult male Sprague Dawley rats (200-350 g, generally 300 g). Animals were housed under standard conditions and allowed to feed ad lib. The Animal Care and Use Committee of the Medical College of Wisconsin approved all procedures performed in accordance with the regulations adopted by the National Institutes of Health.
A myocardial infarction was produced via the ligation of the left main artery using 6-0 prolene suture (See, e.g., Clements-Jewery et al., Br J Pharmacol. 135:807-815, 2002; Farkas et al., J Cardiovasc Pharmacol. 39,412-424, 2002). Rats were anesthetized with sodium pentobarbital (50 mg/kg i.p.). Heparin was then administered (150 U/kg i.p.) to prevent the formation of a thrombus in the coronary vasculature. The heart was then excised and perfused retrogradely with bicarbonate buffer at a pressure of 80 mmHg. (See e.g., Baker et al., Am J Physiol 278, H1395-H1400, 2000). The perfusate was not recirculated. […]
The heart was sectioned in 2 mm segments from apex to atrio-ventricular groove in a transverse fashion. Each segment was recorded and placed in formalin. […] The percentage of infarction of each slide was expressed as a percentage of the entire area of the heart.

nitric oxide synthase = experiment: Nitrite and nitrate release from isolated hearts; design: species or system rabbit; settings: before 2.3±0.9
Description: Nitrite and nitrate release from hearts before (2.3±0.9 nmoles/min/g) and after (2.4±1.9 nmoles/min/g) 15 minutes treatment with erythropoietin (1.0 U/ml, n=8) were not different.

[2] = system: hearts from chronically hypoxic infant rabbits; design: species or system New Zealand White rabbit
Excerpt: Animals. Rabbits used in the study received humane care in compliance with the “Guide for the Care and Use of Laboratory Animals” formulated by the National Research Council, 1996. Infant New Zealand White rabbits were maintained for 10 days in a normoxic (SaO2>95%) or hypoxic (SaO2<85%) environment as described in Baker et al., Circulation 99:1249-54 (1999).
Isolated heart perfusion. Isolated rabbit hearts were perfused with bicarbonate buffer at constant pressure in a retrograde manner and instrumented as described in Baker et al., Circulation 99:1249-54 (1999). Protein kinase inhibitors, potassium channel blockers or nitric oxide synthase inhibitors were added to this perfusate as needed. A 3-way tap, located immediately above the site of cannulation, allowed the entire perfusate to be diverted away from the heart to produce global, no-flow ischemia. Reperfusion was achieved by repositioning of the tap to allow perfusate to be delivered to the heart. Left and right ventricular function was monitored continuously throughout each experiment as described in Baker et al., Circulation 99:1249-54 (1999). End-diastolic pressure was initially set to 3 mmHg for 2 minutes. The balloons were then progressively inflated with a microsyringe to set end-diastolic pressures to 8 mmHg for the left ventricle and 4 mmHg for the right ventricle, with developed pressure and heart rate recorded during steady-state conditions. Coronary flow rate was measured throughout the experiment by timed collections of the coronary effluent from the right side of the heart into a graduated cylinder. Coronary flow rate was expressed as milliliters per minute per gram wet weight.
Resistance to myocardial ischemia. Hearts from infant rabbits were perfused with bicarbonate buffer, and biventricular function was monitored continuously throughout each experiment as described in Rafiee et al., Circulation 106:239-45 (2002). For concentration response studies, hearts were then perfused with erythropoietin (0.5-10.0 U/ml) for 15 minutes prior to 30 minutes ischemia and 35 minutes reperfusion. For mechanism studies with protein kinase inhibitors, potassium channel blockers or nitric oxide synthase inhibitors, hearts were perfused with drugs for 15 minutes alone followed by 15 minutes in combination with erythropoietin prior to ischemia. Hearts perfused with protein kinase inhibitors or potassium channel blockers alone in the absence of erythropoietin for 30 minutes prior to ischemia served as untreated controls for these studies. Recovery of post-ischemic left and right ventricular developed pressure was expressed as a percentage of its pre-drug, pre-ischemic value.
Hearts from 10 day old chronically hypoxic rabbits were treated with erythropoietin at a concentration of 1.0 U/ml.

[3] = chronically hypoxic hearts, EPO 1.0 U/ml for 15 min
[4] = chronically hypoxic hearts, EPO 1.0 U/ml, after 30 min ischemia

For “erythropoietin: Recombinant human erythropoietin, a glycoprotein hormone, obtained from Cell Science, Inc.”, the myocardial infarct size [1] was “decrease in myocardial infarct size”, the “nitrite and nitrate release from hearts after treatment” value (nitric oxide synthase; after 15-minute erythropoietin 1.0 U/ml, not different (discussion)) was 2.4 ± 0.9 nmol/min/g and the “nitrite and nitrate release from hearts after treatment” value (nitric oxide synthase; after 15 minutes erythropoietin 1.0 U/ml, not different) was 2.4 ± 1.9 nmol/min/g. For the same substance, the “adverse effect on ischemic myocardium” value [2] was “did not appear to exert any adverse effect”, the “POST DRUG Coronary flow rate” value [2, 3] was 5 ± 1 mL/min/g and the “POST DRUG Heart rate” value [2, 3] was 181 ± 16 beats/min. For the same substance, the “POST DRUG Left ventricle developed pressure” value [2, 3] was 117 ± 15 mmHg, the “POST DRUG Right ventricle developed pressure” value [2, 3] was 46 ± 8 mmHg and the “REPERFUSION (35 min) Coronary flow rate” value [2, 4] was 6 ± 2 mL/min/g. The “REPERFUSION (35 min) Heart rate” value [2, 4] was 204 ± 25 beats/min, the “REPERFUSION (35 min) Left ventricle developed pressure” value [2, 4] was 77 ± 7 mmHg and the “REPERFUSION (35 min) Right ventricle developed pressure” value [2, 4] was 42 ± 6 mmHg.
